Measurements published in patent publication US20020137929A1, “1 - (3-heterocyclylphenyl) isothiourea, -isourea, -guanidine and -amidine herbicidal agents” (Intellectual Property Department, BASF Aktiengesellschaft, priority 1998, published 2002).

Key:
[1] = tested on: MOOVA (Monochoria); assay: Postemergence weed control under flooded paddy conditions; assay type: in vivo, Monochoria vaginalis; conditions: postemergence weeds, rated 3 to 4 weeks after treatment
Source text: Results of herbicide evaluation are expressed on a rating scale (0-9). The scale is based upon a visual observation of plant stand, vigor, malformation, size, chlorosis and overall plant appearance as compared with a control.
Plastic containers containing weeds which are 3 to 5 cm tall and rice seedlings at the 1.5 to 2.5 leaf stage are flooded with water. The water is maintained at 1.5 to 3 cm above the soil surface for the duration of the experiment. Test compounds are applied as aqueous/ acetone mixtures 50/50 v/v directly into the flood water to provide the equivalent of about 0.0313 to 0.500 kg/ha of active ingredient. The treated containers are placed on greenhouse benches and cared for in accordance with conventional greenhouse procedures. Three to four weeks after treatment, the test is terminated and each container is examined and herbicidal effect rated according to the rating system provided in Example 37. The compounds evaluated are reported by compound number given in Example 37.

[2] = tested on: CASOB (Sicklepod); assay: Postemergence herbicidal evaluation; assay type: in vivo, Cassia obtusifolia; conditions: postemergence
Summary of the method: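 Young plants, roughly two weeks from seeding, receive the active ingredient as a sprayed dispersion (acetone/water 50/50, 0.5% TWEEN 20) at 40 psi. Doses span about 0.0156 to 0.500 kg/ha. A visual score from 0 to 9 compares treated with control plants four to five weeks on.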

[3] = tested on: SAGPY (Arrowhead (Pygmaea)); assay: Preemergence weed control under flooded paddy conditions; assay type: in vivo, Sagittaria pygmaea; conditions: rated 3-4 weeks after treatment
Summary of the method: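 Silt loam, seeds in top 0.5 cm; flood held 1.5-3 cm; test cpd as acetone/water 50/50 into flood water, ~0.0313-0.500 kg/ha a.i.; greenhouse 3-4 wk; visual 0-9 score vs control.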

[4] = tested on: TRZAWR (Wheat, Winter, cv Riband); assay: Preemergence herbicidal evaluation; assay type: in vivo, Triticum aestivum; conditions: preemergence, rated 4-5 weeks after treatment, 0-9 scale
Summary of the method: (§1)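 Sown cups got a single aqueous acetone spray of test compound (roughly 0.0156–0.500 kg/ha) before seedlings emerged. Evaluation, 4–5 weeks on, used a 0–9 visual scale covering plant stand, vigor, size, malformation, chlorosis and general appearance compared with controls.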

[5] = tested on: GLXMAW (Soybean, Williams); assay: Preemergence herbicidal evaluation; assay type: in vivo, Glycine max, (L.) Merr. cv Williams; conditions: preemergence, rated 4-5 weeks after treatment, 0-9 scale
Summary of the method: as §1

[6] = tested on: ORYSAT (Rice, Tebonnet); assay: Preemergence herbicidal evaluation; assay type: in vivo, Oryza sativa, (L.) Tebonnet; conditions: preemergence, rated 4-5 weeks after treatment, 0-9 scale
Summary of the method: as §1

Compound	Herbicidal rating MOOVA ([1]; Rate 0.0313 kg/ha)	Herbicidal rating MOOVA ([1]; Rate 0.0625 kg/ha)	Herbicidal rating MOOVA ([1]; Rate 0.1250 kg/ha)	Herbicidal rating MOOVA ([1]; Rate 0.2500 kg/ha)	TRZAWR rating ([4]; 0.0313 kg/ha)	TRZAWR rating ([4]; 0.0625 kg/ha)	TRZAWR rating ([4]; 0.1250 kg/ha)	TRZAWR rating ([4]; 0.2500 kg/ha)	TRZAWR rating ([4]; 0.5000 kg/ha)	GLXMAW rating ([5]; 0.0313 kg/ha)	GLXMAW rating ([5]; 0.0625 kg/ha)	GLXMAW rating ([5]; 0.1250 kg/ha)	GLXMAW rating ([5]; 0.2500 kg/ha)	GLXMAW rating ([5]; 0.5000 kg/ha)	ORYSAT rating ([6]; 0.0313 kg/ha)	ORYSAT rating ([6]; 0.0625 kg/ha)	ORYSAT rating ([6]; 0.1250 kg/ha)	ORYSAT rating ([6]; 0.2500 kg/ha)	ORYSAT rating ([6]; 0.5000 kg/ha)	CASOB herbicidal rating ([2]; rate 0.0156 kg/ha)	also measured
C=CCN1C(=O)C(CC(=O)NS(=O)(=O)c2ccccc2)SC1=Nc1cc(-n2c(=O)cc(C(F)(F)F)n(C)c2=O)c(F)cc1Cl (stereo not drawn) [Compound 101, 3-Allyl-2-{{2-chloro-5-[3,6-dihydro-3-methyl-2,6-dioxo-4-(trifluoromethyl)-1(2H)-pyrimidinyl]-4-fluorophenyl}imino}-4-oxo-N-(phenylsulfonyl)-5-thiazolidineacetamide]	5.0	5.0	7.0	9.0																	Herbicidal rating MOOVA ([1]; Rate 0.5000 kg/ha): 9.0; Herbicidal rating CASOB ([2]; rate 0.0156 kg/ha): 0.0; Herbicidal rating CASOB ([2]; rate 0.0313 kg/ha): 0.0; Herbicidal rating CASOB ([2]; rate 0.0625 kg/ha): 2.0; Herbicidal rating CASOB ([2]; rate 0.1250 kg/ha): 3.0; SAGPY herbicidal effect rating ([3]; 0.0313 kg/ha): 0.0; SAGPY herbicidal effect rating ([3]; 0.0625 kg/ha): 0.0; SAGPY herbicidal effect rating ([3]; 0.1250 kg/ha): 0.0; SAGPY herbicidal effect rating ([3]; 0.2500 kg/ha): 2.0; SAGPY herbicidal effect rating ([3]; 0.5000 kg/ha): 4.0
CCOC(=O)CN1C(=O)C(CC(=O)NO)S/C1=N/c1cc(-n2c(=O)cc(C(F)(F)F)n(C)c2=O)c(F)cc1Cl (stereo not drawn) [Compound 98, Ethyl 2-{{2-chloro-5-[3,6-dihydro-3-methyl-2,6-dioxo-4-(trifluoromethyl)-1(2H)-pyrimidinyl]-4-fluorophenyl}imino}-5-[(hydroxycarbamoyl)methyl]-4-oxo-3-thiazolidineacetate]	9.0	9.0	9.0	9.0	0.0	0.0	0.0	1.0	3.0	0.0	1.0	1.0	4.0	5.0	0.0	0.0	0.0	1.0	4.0	0.0	TRZAWR rating ([4]; 0.0156 kg/ha): 0.0; GLXMAW rating ([5]; 0.0156 kg/ha): 0.0; ORYSAT rating ([6]; 0.0156 kg/ha): 0.0; CASOB herbicidal rating ([2]; rate 0.0313 kg/ha): 0.0; CASOB herbicidal rating ([2]; rate 0.0625 kg/ha): 0.0; CASOB herbicidal rating ([2]; rate 0.1250 kg/ha): 1.0
C=CCN1C(=O)C(CC(=O)NS(C)(=O)=O)SC1=Nc1cc(-n2c(=O)cc(C(F)(F)F)n(C)c2=O)c(F)cc1Cl (stereo not drawn) [Compound 96, 3-Allyl-2-{{2-chloro-5-[3,6-dihydro-3-methyl-2,6-dioxo-4-(trifluoromethyl)-1(2H)-pryimidinyl]-4-fluorophenyl}imino}-N-(methylsulfonyl)-4-oxo-5-thiazolidineacetamide]	2.0	2.0	3.0	3.0	0.0	0.0	0.0	1.0	1.0	0.0	0.0	0.0	3.0	4.0	0.0	0.0	0.0	1.0	2.0	0.0	CASOB herbicidal rating ([2]; rate 0.0313 kg/ha): 0.0; CASOB herbicidal rating ([2]; rate 0.0625 kg/ha): 1.0; CASOB herbicidal rating ([2]; rate 0.1250 kg/ha): 0.0
